Read-outs that look alike come from different tables or passages of the source.
Key:
[1] = tested on: BiFC-tau Venus HEK293 cells (tau aggregation, hTau441); assay: BiFC-tau Venus HEK293 cell assay monitoring tau aggregation under thapsigargin; assay type: cell-based, human
Protocol: Phenotype-based screening to monitor tau assembly was performed using BiFC-tau Venus HEK293 cells in a high-throughput manner. Cells were seeded in 384-well plates at a density of 2.8×10^3 cells/well in 40 μL medium for 24 hours. Cells were treated with 80 nM thapsigargin (Sigma-Aldrich) in 10 μL medium and then ˜ 3,000 pDOS library compounds (10 μM), including compounds according to the present invention, using a 0.1 μL pinning tool. For knockdown experiments, cells were transfected with 5 or 10 nM siRNA using Lipofectamine RNAiMAX and incubated for 48 hours before thapsigargin treatment. […] Plates were scanned on an INCell Analyzer 2000 (GE Healthcare) at λex/λem=490/525 nm for Venus fluorescence (for the FITC channel) and λex/λem=350/455 nm for nuclei (for the DAPI channel). Bright-field images were taken to confirm cell morphology, and images were analyzed to quantify Venus intensity per cell using developer software (GE Healthcare).
1-1. According to the method described in Examples 1-15 above, the expression of Venus-based bimolecular fluorescence complemented-tau (BiFC-tau) was confirmed using HEK293 human embryonic kidney cells, thereby phenotyping the phenotype-based screening was performed.
The N-terminal Venus (VN173) and C-terminal Venus (VC155) fragment sequences are fused with the full-length human tau (hTau441) sequence to form the BiFC-tau Venus HEK293 cell system. Soluble tau dimers can be measured by monitoring the turn-on/off signal of Venus fluorescence through co-expression of the two fused vectors, hTau441-VN173 and hTau441-VC1 55.
As a stimulator of tau aggregation, thapsigargin (TG; an ER stress inducer), a direct inhibitor of sarco/endoplasmic reticulum Ca2^+-ATPase, was used. This disrupts calcium homeostasis. Thapsigargin treatment induces tau dimerization (tau aggregation), which can be confirmed by BiFC-tau Venus fluorescence turn-on.

[2] = Pharmacokinetics test in male ICR mice; assay type: in vivo; conditions: CD-1 (ICR), mouse, plasma, 5 mg/kg; for half-life: male
Protocol: After intravenous or intraperitoneal administration (5 mg/kg, 3.3 mL/kg) of the compound (SB1617, 5% DMSO/[…]) according to the present invention to CD-1 (ICR) male mice (7 weeks old, KOATECH, Korea), blood was collected at designated time points from the orbital venous plexus. The concentration of the compound (SB1617) according to the present invention was examined from the plasma samples using an LC-MS/MS analyzer (Agilent 1200, 4000 Qtrap). Pharmacokinetic parameters were obtained from plasma concentration-time plots using WinNonlin software (Pharsight, USA).
6-1. In order to evaluate the suitability of the compound (SB1617) according to this invention in vivo, pharmacokinetic properties and blood-brain barrier penetration properties were identified using male ICR mice according to the methods described in Examples 1-15 and 1-16.

[3] = biological target: T1, PDIA3 (Homo sapiens, UniProt P30101); assay: CETSA and pull-down assay with probe SB1624; assay type: binding; parameters: endogenous in cells; host or cells: HEK293 BiFC-tau cells (TS-FITGE, CETSA, PEG-maleimide assay); SH-SY5Y cells (pull-down with probe SB1624); conditions: CETSA 10 μM in HEK293 BiFC-tau cells; pull-down 5 μM SB1624 with or without 40 μM SB1617 in SH-SY5Y cells
T1 sequence (P30101 25-505): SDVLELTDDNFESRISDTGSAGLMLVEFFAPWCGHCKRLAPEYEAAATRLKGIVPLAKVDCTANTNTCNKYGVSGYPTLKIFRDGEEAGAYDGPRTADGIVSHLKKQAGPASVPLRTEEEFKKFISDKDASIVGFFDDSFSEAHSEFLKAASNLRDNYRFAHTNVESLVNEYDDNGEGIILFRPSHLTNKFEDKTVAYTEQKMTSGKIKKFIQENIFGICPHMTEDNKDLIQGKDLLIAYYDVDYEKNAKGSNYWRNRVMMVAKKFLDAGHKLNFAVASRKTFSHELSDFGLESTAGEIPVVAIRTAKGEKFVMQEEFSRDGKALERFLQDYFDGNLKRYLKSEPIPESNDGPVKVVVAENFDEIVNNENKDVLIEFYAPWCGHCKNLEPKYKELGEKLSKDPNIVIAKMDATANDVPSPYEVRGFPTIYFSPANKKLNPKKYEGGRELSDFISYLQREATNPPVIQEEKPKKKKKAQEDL
Protocol: HEK293 BiFC-tau cells were treated with DMSO (0.1%) and a compound according to the present invention (10 μM) in the presence of thapsigargin (200 nM) for 3 hours. The cell suspension was heated at the indicated temperature range for 3 minutes and then at 25° C. for 3 minutes. The heated cells were washed with PBS and resuspended in Lysis Buffer A. For cell lysis, cell suspensions were freeze-thawed in liquid nitrogen three times. The cell lysate was washed by centrifugation at 20000 g, 4° C. for 20 minutes. Equal volumes of washed cell lysate were combined with SDS buffer and subjected to immunoblotting.
SH-SY5Y cells were seeded in 6-well plates and then treated with 1 μM thapsigargin and 5 μM SB1624 (probe compound) for 2.5 hours with or without 40 μM SB1617. Cells were exposed to 356 nm UV irradiation for 30 min on ice. After washing with cold PBS, cells were lysed in RIPA buffer and removed by centrifugation at […] for 15 minutes at 4° C. The protein concentration of the supernatant was determined by Pierce BCA Protein Assay Kit and the protein concentration was adjusted to 1 mg/mL. […] Proteins were eluted by boiling with 3×SDS sample buffer and analyzed by SDS-PAGE and Western blot. […]

With `CN(Cc1ccc(Cl)cc1)c1ncnc2c1[C@@H]1OC[C@H](CN2)N1S(=O)(=O)c1ccc([N+](=O)[O-])cc1` [Compound 117] the “BiFC-Venus fluorescence induced by thapsigargin (FITC channel image)” value ([1]; 10 μM SB1617 with 80 nM thapsigargin, 24 hours) was “suppresses BiFC-Venus fluorescence”, the IC50 ([1]; Homo sapiens, HEK293, inhibition of BiFC-tau Venus fluorescence, 80 nM thapsigargin, table head prints no unit, μM, read-out: BiFC-tau intensity (IC50)) was 1.9 µM and the activity at 10 µM ([1]; Homo sapiens, HEK293-BiFC-tau-Venus cells co-treated with 10 μM compound and 80 nM thapsigargin for 24 hours, read-out: BiFC-tau intensity (%)) was 36%. For the same compound, the “change in Venus fluorescence intensity” value ([1]; various concentrations with 80 nM TG for 20 hours) was “dose dependent”, the AUC(0-inf) ([2]; ip, I.P.) was 5650 ± 3320 ng·h/mL and the AUC(0-t) ([2]; ip, I.P.) was 6070 ± 2810 ng·h/mL. It also gave a Cmax ([2]; ip, I.P.) of 857 ± 339 ng/mL, a Tmax ([2]; ip, I.P.) of 1.67 ± 2.02 h and an AUC(0-inf) ([2]; iv, I.V.) of 4490 ± 150 ng·h/mL. The AUC(0-t) ([2]; iv, I.V.) was 4190 ± 112 ng·h/mL, the clearance ([2]; iv, I.V.) was 18.7 mL/min/kg and the Vd ([2]; iv, I.V., read-out: Vss) was 6.27 ± 0.928 L/kg. The half-life ([2]; ip, I.P., read-out: T1/2 (converted)) was 6.57 ± 0.0563 h, the half-life ([2]; ip, intraperitoneal injection, read-out: half-life (converted)) was about 6.6 h and the half-life ([2]; iv, I.V., read-out: T1/2 (converted)) was 5.51 ± 1.86 h. For the same compound, the “specific binding (CETSA, pull-down)” value [3] was “specifically binds”.

— patent publication US20230322805A1, “NOVEL PYRIMIDODIAZEPINE DERIVATIVES OR USES THEREOF” (SPARK BIOPHARMA, INC., priority 2020, published 2023)
